Experimental findings from DBAASP are described below.

Converted amounts (≈) assume the structure as drawn. Some results are limits rather than exact numbers.

Experiment in all cases: ≥ marks a high value that may be exact or a test limit, other limits are often not marked, values filed in µg/mL are converted to µM
Assay [1] deals with Enterobacter cloacae BCRC 10401.
Assay [2] relates to Escherichia coli BCRC 10675.
The subject of assay [3] is Klebsiella aerogenes BCRC 10370.
Assay [4] concerns Klebsiella oxytoca BCRC 13985.
Assay [5] deals with Lactococcus garvieae.
Assay [6] concerns Listeria monocytogenes BCRC 14845.
In assay [7] the test system is Pseudomonas aeruginosa BCRC 10944.
Assay [8] has as its system Staphylococcus aureus BCRC 10780.
Assay [9] relates to Staphylococcus aureus BCRC 10781.
The subject of assay [10] is Staphylococcus xylosus BCRC 12930.
Assay [11] deals with Streptococcus equinus BCRC 14729.
The subject of assay [12] is Streptococcus iniae.
Assay [13] relates to Vibrio alginolyticus BCRC 12829.
Assay [14] relates to Vibrio alginolyticus.
The subject of assay [15] is Vibrio anguillarum serotype O1.
For assay [16], the system named is Vibrio harveyi.
Assay [17] deals with Vibrio parahaemolyticus BCRC 10806.
Assay [18] relates to Vibrio parahaemolyticus.
Assay [19] deals with Yersinia enterocolitica BCRC 13999.
The test system of assay [20] is Enterococcus faecalis.
Assay [21] deals with Escherichia coli W3110.
In assay [22] the test system is Pseudomonas aeruginosa PAK.
Assay [23] deals with Staphylococcus aureus.
Assay [24] relates to Streptococcus mutans UA159.
The subject of assay [25] is Streptococcus sanguinis NY101.
Assay [26] relates to Streptococcus sobrinus ATCC 33478.
Assay [27] relates to Streptococcus gordonii Challis DL1.
The test system of assay [28] is Streptococcus mitis ATCC 903.

Take `CC[C@H](C)[C@H](NC(=O)[C@H](C)NC(=O)[C@@H](NC(=O)[C@H](Cc1ccc(O)cc1)NC(=O)[C@@H](NC(=O)[C@H](CCCCN)NC(=O)[C@H](CCCCN)NC(=O)[C@H](C)NC(=O)[C@H](Cc1ccccc1)NC(=O)[C@H](CC(N)=O)NC(=O)[C@H](CC(C)C)NC(=O)[C@@H](NC(=O)[C@H](CCCCN)NC(=O)[C@H](CCCCN)NC(=O)[C@H](CC(C)C)NC(=O)[C@H](Cc1ccccc1)NC(=O)[C@@H](NC(=O)[C@H](CC(C)C)NC(=O)CN)[C@@H](C)O)[C@@H](C)CC)[C@@H](C)CC)[C@@H](C)O)C(=O)N[C@@H](Cc1c[nH]c2ccccc12)C(=O)O` [GLTFLKKILNFAKKIYTAIW]: the MIC (usually the least concentration at which growth counts as inhibited) in [1] was 6.75 µM (≈ 16 µg/mL); in assay [2], 13.5 µM (≈ 32 µg/mL); in [3], 6.75 µM (≈ 16 µg/mL); in [4], no less than 54 µM; in assay [5] it was 13.5 µM (≈ 32 µg/mL); in assay [6], 3.38 µM (≈ 8 µg/mL). Further, the MIC in [7] was 13.5 µM (≈ 32 µg/mL); in assay [8] it was 6.75 µM (≈ 16 µg/mL); in [9], 6.75 µM (≈ 16 µg/mL); in assay [10], 6.75 µM (≈ 16 µg/mL); in assay [11], no less than 54 µM; in assay [12] it was 13.5 µM (≈ 32 µg/mL). Further, the MIC in assay [13] turned out to be 13.5 µM (≈ 32 µg/mL); in [14], 3.38 µM (≈ 8 µg/mL); in [15], 3.38 µM (≈ 8 µg/mL); in assay [16], 3.38 µM (≈ 8 µg/mL); in assay [17], 13.5 µM (≈ 32 µg/mL); in assay [18], 3.38 µM (≈ 8 µg/mL). In assay [19], this molecule returned an MIC of 27 µM (≈ 64 µg/mL).

`CC[C@H](C)[C@H](NC(=O)[C@H](Cc1ccc(O)cc1)NC(=O)[C@H](CCCCN)NC(=O)[C@H](Cc1ccccc1)NC(=O)[C@H](Cc1ccccc1)NC(=O)[C@H](CCCCN)NC(=O)[C@H](CC(N)=O)NC(=O)[C@@H](NC(=O)[C@H](Cc1ccc(O)cc1)NC(=O)[C@H](CCCCN)NC(=O)[C@@H](NC(=O)[C@@H](NC(=O)[C@H](CC(N)=O)NC(=O)[C@H](CC(N)=O)NC(=O)[C@@H](NC(=O)[C@H](Cc1ccc(O)cc1)NC(=O)[C@H](CCCCN)NC(=O)[C@H](Cc1ccc(O)cc1)NC(=O)CN)[C@@H](C)CC)[C@@H](C)CC)[C@@H](C)CC)[C@@H](C)CC)C(=O)N[C@@H](Cc1c[nH]c2ccccc12)C(=O)O` [GYKYINNIIKYINKFFKYIW]: the MIC in assay [1] was 6.09 µM (≈ 16 µg/mL); in [2] it was 6.09 µM (≈ 16 µg/mL); in assay [3], 6.09 µM (≈ 16 µg/mL); in assay [4] it was 6.09 µM (≈ 16 µg/mL); in [5], no less than 48.7 µM; in assay [6], 12.2 µM (≈ 32 µg/mL). Besides, the MIC is 12.2 µM (≈ 32 µg/mL) in assay [7]; 3.04 µM (≈ 8 µg/mL) in [8]; 3.04 µM (≈ 8 µg/mL) in assay [9]; 3.04 µM (≈ 8 µg/mL) in assay [10]; no less than 48.7 µM in [11]; 12.2 µM (≈ 32 µg/mL) in [12]. The MIC in assay [13] stood at 12.2 µM (≈ 32 µg/mL); in [14], 3.04 µM (≈ 8 µg/mL); in [15], 3.04 µM (≈ 8 µg/mL); in [16], 3.04 µM (≈ 8 µg/mL); in assay [17], 12.2 µM (≈ 32 µg/mL); in assay [18], 3.04 µM (≈ 8 µg/mL). In assay [19], the MIC was no less than 48.7 µM.

`CC[C@H](C)[C@H](NC(=O)[C@H](Cc1cnc[nH]1)NC(=O)[C@H](CCCCN)NC(=O)[C@@H](NC(=O)[C@@H](N)CC(C)C)[C@@H](C)CC)C(=O)N[C@@H](CC(C)C)C(=O)N[C@@H](Cc1cnc[nH]1)C(=O)N[C@@H](CCCN=C(N)N)C(=O)N[C@@H](CC(C)C)C(=O)NCC(=O)NCC(=O)NCC(=O)N[C@@H](Cc1ccccc1)C(=O)N[C@@H](Cc1cnc[nH]1)C(=O)N[C@@H](Cc1ccccc1)C(=O)N[C@@H](Cc1cnc[nH]1)C(=O)N[C@@H](CC(C)C)C(=O)N[C@@H](Cc1cnc[nH]1)C(=O)N[C@@H](Cc1ccccc1)C(N)=O` [LIKHILHRLGGGFHFHLHF]: the minimum inhibitory concentration (MIC) in [20] was 14 µM (≈ 32 µg/mL); in assay [21] it was no less than 110 µM; in assay [22] it was no less than 110 µM; in [23], 27.4 µM (≈ 62.5 µg/mL); in assay [24] it was 7.02 µM (≈ 16 µg/mL); in [25], 27.4 µM (≈ 62.5 µg/mL). For the same molecule, the MIC in assay [26] stood at 14 µM (≈ 32 µg/mL).

On to `CC[C@H](C)[C@H](NC(=O)[C@H](Cc1ccccc1)NC(=O)[C@H](Cc1cnc[nH]1)NC(=O)[C@H](CCCCN)NC(=O)[C@@H](NC(=O)[C@H](Cc1ccccc1)NC(=O)[C@@H]1CCCN1C(=O)[C@H](CO)NC(=O)CNC(=O)[C@H](CO)NC(=O)[C@@H]1CCCN1C(=O)[C@H](Cc1ccccc1)NC(=O)[C@H](Cc1cnc[nH]1)NC(=O)[C@H](CC(C)C)NC(=O)[C@H](Cc1cnc[nH]1)NC(=O)[C@H](Cc1ccccc1)NC(=O)[C@H](Cc1cnc[nH]1)NC(=O)[C@@H](N)Cc1ccccc1)[C@@H](C)CC)C(=O)N[C@@H](Cc1cnc[nH]1)C(=O)N[C@@H](CCCN=C(N)N)C(=O)N[C@@H](Cc1ccccc1)C(N)=O` [FHFHLHFPSGSPFIKHFIHRF], for which the minimal inhibitory concentration (MIC) in [20] is no less than 94.8 µM; in assay [21], no less than 47.4 µM; in assay [22], no less than 190 µM; in assay [23], greater than 190 µM; in [24], 23.7 µM (≈ 62.5 µg/mL); in [25], 23.7 µM (≈ 62.5 µg/mL). In assay [26], this molecule registered a minimal inhibitory concentration (MIC) of 23.7 µM (≈ 62.5 µg/mL).

Consider `NC(=O)CC[C@H](NC(=O)[C@H](Cc1c[nH]c2ccccc12)NC(=O)[C@@H](N)Cc1c[nH]c2ccccc12)C(=O)N[C@@H](CC(=O)O)C(=O)N[C@@H](Cc1c[nH]c2ccccc12)C(=O)N[C@@H](Cc1c[nH]c2ccccc12)C(=O)N[C@@H](CC(N)=O)C(=O)N[C@@H](CCC(=O)O)C(=O)N[C@@H](Cc1c[nH]c2ccccc12)C(N)=O` [WWQDWWNEW], for which the MIC was no less than 348 µM in [20]; no less than 348 µM in assay [21]; no less than 348 µM in assay [22]; greater than 348 µM in [23]; no less than 348 µM in assay [27]; no less than 348 µM in assay [28]. Also, the minimal inhibitory concentration (MIC) in assay [24], in assay [25] and in assay [26] was no less than 348 µM each time.

`CC[C@H](C)[C@H](NC(=O)[C@H](CCCCN)NC(=O)[C@@H](NC(=O)[C@@H](NC(=O)[C@@H](NC(=O)[C@H](CCCCN)NC(=O)[C@@H](NC(=O)[C@@H](NC(=O)[C@H](CCCCN)NC(=O)[C@H](CCCCN)NC(=O)[C@H](C)NC(=O)[C@H](Cc1ccc(O)cc1)NC(=O)[C@@H](NC(=O)[C@H](C)NC(=O)CN)[C@@H](C)O)[C@@H](C)CC)[C@@H](C)CC)[C@@H](C)O)[C@@H](C)CC)[C@@H](C)O)C(=O)N[C@@H](C)C(=O)N[C@H](C(=O)N[C@H](C(=O)N[C@@H](C)C(=O)N[C@@H](Cc1c[nH]c2ccccc12)C(=O)O)[C@@H](C)O)[C@@H](C)O` [GATYAKKIIKTITKIATTAW]: the MIC in assay [1] was 14.7 µM (≈ 32 µg/mL); in [2], 7.34 µM (≈ 16 µg/mL); in assay [3], 29.4 µM (≈ 64 µg/mL); in assay [4], 29.4 µM (≈ 64 µg/mL); in assay [5], no less than 58.7 µM; in assay [6], no less than 58.7 µM. For the same molecule, the minimum inhibitory concentration (MIC) in [7] was 29.4 µM (≈ 64 µg/mL); in [8] it was no less than 58.7 µM; in assay [9], no less than 58.7 µM; in [10] it was 29.4 µM (≈ 64 µg/mL); in assay [11], no less than 58.7 µM; in assay [12], no less than 58.7 µM. Moreover, the MIC is no less than 58.7 µM in assay [13]; 29.4 µM (≈ 64 µg/mL) in assay [14]; 29.4 µM (≈ 64 µg/mL) in assay [15]; 29.4 µM (≈ 64 µg/mL) in assay [16]; no less than 58.7 µM in assay [17]; 29.4 µM (≈ 64 µg/mL) in [18]. Moreover, in assay [19], the MIC was no less than 58.7 µM.
